Data taken from US7473790B2 (Pfizer Inc., priority 2003, dated 2009).

Each molecule was assayed against T1, HCV polymerase (Hepatitis C virus genotype 1b, UniProt P26663) (assay: HCV polymerase primer/template-directed transcription assay (32P-GTP incorporation, filter binding)). Conditions: @ 50 uM compound; given where IC50 was impractical to calculate; read-out: percent inhibition.
T1 construct: 2.5 pmoles (0.15 μg) HCV polymerase protein in a final volume of 75 μL
Type: biochemical
Outline: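 IC50s come from triplicate cpm, refit with an enzyme-concentration (30 nM) correction when under 200 nM. Reactions ran 30 min at 30° C in Tris pH 7.2 with MgCl2, 1 μM GTP spiked with α-32P-GTP, biotin-dG12 primer and poly(rC)300 template, with 1% DMSO. Incorporated label was collected on DE filtermats and counted.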

T1 sequence (P26663 2420-3010): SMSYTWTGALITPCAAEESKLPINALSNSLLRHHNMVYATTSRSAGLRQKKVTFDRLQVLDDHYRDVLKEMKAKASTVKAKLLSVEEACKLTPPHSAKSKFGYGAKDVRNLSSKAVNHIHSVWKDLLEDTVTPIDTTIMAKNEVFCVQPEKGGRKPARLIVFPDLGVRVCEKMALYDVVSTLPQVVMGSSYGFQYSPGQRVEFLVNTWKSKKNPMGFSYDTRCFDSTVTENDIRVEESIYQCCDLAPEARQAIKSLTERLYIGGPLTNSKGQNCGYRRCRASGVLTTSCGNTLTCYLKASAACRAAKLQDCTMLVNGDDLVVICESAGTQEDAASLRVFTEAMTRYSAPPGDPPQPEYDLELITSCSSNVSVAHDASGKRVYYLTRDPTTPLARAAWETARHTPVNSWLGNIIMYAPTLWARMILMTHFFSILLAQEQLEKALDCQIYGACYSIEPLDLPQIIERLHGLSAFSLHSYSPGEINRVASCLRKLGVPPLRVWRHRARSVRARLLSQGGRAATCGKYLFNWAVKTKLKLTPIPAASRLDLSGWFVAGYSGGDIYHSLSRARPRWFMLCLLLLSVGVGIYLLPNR

Compound | inhibition at 50 µM
C=CCC1(CCc2ccc(OC)cc2)CC(=O)CC(=O)O1 (stereo not shown) [A(26), 6-Allyl-6-[2-(4-methoxy-phenyl)-ethyl]-dihydro-pyran-2,4-dione] | 20%
CCC1(C)CC(O)=C(Sc2nc3cc(Cl)ccc3n2C(C)C)C(=O)O1 (stereo not shown) [C(20), 3-(5-Chloro-1-isopropyl-1H-benzoimidazol-2-ylsulfanyl)-6-ethyl-4-hydroxy-6-methyl-5,6-dihydro-pyran-2-one] | 11%
Cc1cc(C)n2nc(SC3=C(O)CC(C)(C4CCCC4)OC3=O)nc2n1 (stereo not shown) [C(17), 6-Cyclopentyl-3-(5,7-dimethyl-[1,2,4]triazolo[1,5-a]pyrimidin-2-ylsulfanyl)-4-hydroxy-6-methyl-5,6-dihydro-pyran-2-one] | 2%
O=C1CC(=O)OC(CSc2ncccn2)(C2CCCC2)C1 (stereo not shown) [I(1), 6-cyclopentyl-6-[(pyrimidin-2-ylthio)methyl]dihydro-2H-pyran-2,4(3H)-dione] | 27%
O=C(O)CC(O)(CCNC(=O)CCc1ccco1)C1CCCC1 (stereo not shown) [H(5), 3-Cyclopentyl-5-(3-furan-2-yl-propionylamino)-3-hydroxy-pentanoic acid] | 7%

Same assay, conditions: recombinant HCV polymerase; 30 minutes at 30° C.; concentration giving 50% inhibition of polymerase-directed transcription; read-out: IC50

Compound | IC50
N#CC1(c2ccc(CCC3(C4CCCC4)CC(O)=C(Cc4nc5ncc(Cl)cn5n4)C(=O)O3)cc2Cl)CC1 (stereo not shown) [B(126), 1-(2-Chloro-4-{2-[5-(6-chloro-[1,2,4]triazolo[1,5-a]pyrimidin-2-ylmethyl)-2-cyclopentyl-4-hydroxy-6-oxo-3,6-dihydro-2H-pyran-2-yl]-ethyl}-phenyl)-cyclopropanecarbonitrile] | 23 nM
COC(=O)CC(=O)CC(=O)C(C)(C)Oc1ccc(CCC2(C3CCCC3)CC(=O)CC(=O)O2)cc1F (stereo not shown) [A(52), 6-{4-[2-(2-Cyclopentyl-4,6-dioxo-tetrahydro-pyran-2-yl)-ethyl]-2-fluoro-phenoxy}-6-methyl-3,5-dioxo-heptanoic acid methyl ester] | 1500 nM
CC(=O)N[C@H](C)c1ccc(CCC2(C3CCCC3)CC(=O)CC(=O)O2)cc1 (stereo partly shown) [A(38), N-(1-{4-[2-(2-Cyclopentyl-4,6-dioxo-tetrahydro-pyran-2-yl)-ethyl]-phenyl}-ethyl)-acetamide] | 12000 nM
CCc1nc(C)c(CC2=C(O)CC(CCc3ccc(C(C)(C)C#N)c(F)c3)(C3CCCC3)OC2=O)[nH]1 (stereo not shown) [A(97), 2-[4-(2-{2-cyclopentyl-5-[(2-ethyl-4-methyl-1H-imidazol-5-yl)methyl]-4-hydroxy-6-oxo-3,6-dihydro-2H-pyran-2-yl}ethyl)-2-fluorophenyl]-2-methylpropanenitrile] | 290 nM
CCc1ccc(O)c(CCC2(C3CCCC3)CC(O)=C(Cc3nc4ncc(Cl)cn4n3)C(=O)O2)c1 (stereo not shown) [A(170), 3-(6-Chloro-[1,2,4]triazolo[1,5-a]pyrimidin-2-ylmethyl)-6-cyclopentyl-6-[2-(5-ethyl-2-hydroxy-phenyl)-ethyl]-4-hydroxy-5,6-dihydro-pyran-2-one] | 10 nM
COc1ccc(CCC2(C3CCCC3)CC(O)=C(Cc3nc4ncc(Cl)cn4n3)C(=O)O2)c(OC)c1 (stereo not shown) [B(119), 3-(6-Chloro-[1,2,4]triazolo[1,5-a]pyrimidin-2-ylmethyl)-6-cyclopentyl-6-[2-(2,4-dimethoxy-phenyl)-ethyl]-4-hydroxy-5,6-dihydro-pyran-2-one] | 70 nM
CC(=O)c1ccc(CCC2(C3CCCC3)CC(O)=C(Cc3nc4nc(C)cc(C)n4n3)C(=O)O2)cc1Cl (stereo not shown) [B(124), 6-[2-(4-Acetyl-3-chloro-phenyl)-ethyl]-6-cyclopentyl-3-(5,7-dimethyl-[1,2,4]triazolo[1,5-a]pyrimidin-2-ylmethyl)-4-hydroxy-5,6-dihydro-pyran-2-one] | 90 nM
CCc1cc(CCC2(C3CCCC3)CC(=O)CC(=O)O2)ccc1OCCOC (stereo not shown) [A(184), 6-Cyclopentyl-6-{2-[3-ethyl-4-(2-methoxy-ethoxy)-phenyl]-ethyl}-dihydro-pyran-2,4-dione] | 520 nM
CCc1ccc(OCCOC)c(CCC2(C3CCCC3)CC(=O)CC(=O)O2)c1 (stereo not shown) [A(178), 6-Cyclopentyl-6-{2-[5-ethyl-2-(2-methoxy-ethoxy)-phenyl]-ethyl}-dihydro-pyran-2,4-dione] | 1300 nM
CCn1nnnc1SC1=C(O)CC(CCc2ccc(OC)c(Cl)c2)(C2CCCC2)OC1=O (stereo not shown) [C(39), 6-[2-(3-chloro-4-methoxyphenyl)ethyl]-6-cyclopentyl-3-[(1-ethyl-1H-tetrazol-5-yl)thio]-4-hydroxy-5,6-dihydro-2H-pyran-2-one] | 220 nM
O=C1OC(CCc2ccc(O)c(CC(F)(F)F)c2)(C2CCCC2)CC(O)=C1Cc1nc2ncc(Cl)cn2n1 (racemic) [A(227), 3-[(6-chloro[1,2,4]triazolo[1,5-a]pyrimidin-2-yl)methyl]-6-cyclopentyl-4-hydroxy-6-{2-[4-hydroxy-3-(2,2,2-trifluoroethyl)phenyl]ethyl}-5,6-dihydro-2H-pyran-2-one] | 10 nM
CCn1cnnc1SC1=C(O)CC(CCc2ccc(OC)c(Cl)c2)(C2CCCC2)OC1=O (stereo not shown) [C(35), 6-[2-(3-chloro-4-methoxyphenyl)ethyl]-6-cyclopentyl-3-[(4-ethyl-4H-1,2,4-triazol-3-yl)thio]-4-hydroxy-5,6-dihydro-2H-pyran-2-one] | 70 nM
COC(=O)C(C)(C)Oc1ccc(CCC2(C3CCCC3)CC(=O)CC(=O)O2)cc1F (stereo not shown) [A(55), 2-{4-[2-(2-Cyclopentyl-4,6-dioxo-tetrahydro-pyran-2-yl)-ethyl]-2-fluoro-phenoxy}-2-methyl-propionic acid methyl ester] | 11200 nM
CCc1cccc(CCC2(C3CCCC3)CC(O)=C(Cc3nc4nc(C)cc(C)n4n3)C(=O)O2)c1 (single isomer, unassigned) [J(8), 6-Cyclopentyl-3-(5,7-dimethyl-[1,2,4]triazolo[1,5-a]pyrimidin-2-ylmethyl)-6-[2-(3-ethyl-phenyl)-ethyl]-4-hydroxy-5,6-dihydro-pyran-2-one] | 14 nM
Cc1cc(C)n2nc(SC3=C(O)CC(CCc4ccc(C(F)F)c(F)c4)(C4CCCC4)OC3=O)nc2n1 (stereo not shown) [C(69), 6-Cyclopentyl-6-{2-[4-(difluoromethyl)-3-fluorophenyl]ethyl}-3-[(5,7-dimethyl[1,2,4]triazolo[1,5-a]pyrimidin-2-yl)thio]-4-hydroxy-5,6-dihydro-2H-pyran-2-one] | 130 nM
CC(C)(O)c1ccc(CCC2(C3CCCC3)CC(O)=C(Cc3nc4ncc(Cl)cn4n3)C(=O)O2)cc1F (stereo not shown) [A(214), 3-[(6-chloro[1,2,4]triazolo[1,5-a]pyrimidin-2-yl)methyl]-6-cyclopentyl-6-{2-[3-fluoro-4-(1-hydroxy-1-methylethyl)phenyl]ethyl}-4-hydroxy-5,6-dihydro-2H-pyran-2-one] | 38 nM
COc1ccc(CCC2(C3CCCC3)CC(O)=C(Sc3nc4c(C)cccc4[nH]3)C(=O)O2)cc1Cl (stereo not shown) [C(54), 6-[2-(3-chloro-4-methoxyphenyl)ethyl]-6-cyclopentyl-4-hydroxy-3-[(4-methyl-1H-benzimidazol-2-yl)thio]-5,6-dihydro-2H-pyran-2-one] | 220 nM
CNC(=O)C(C)(C)c1ccc(CCC2(C3CCCC3)CC(=O)CC(=O)O2)cc1 (stereo not shown) [A(49), 2-{4-[2-(2-Cyclopentyl-4,6-dioxo-tetrahydro-pyran-2-yl)-ethyl]-phenyl}-N-methyl-isobutyramide] | 9000 nM
CCc1cc(CCC2(C3CCCC3)CC(=O)CC(=O)O2)ccc1OCCO (stereo not shown) [A(128), 6-Cyclopentyl-6-{2-[3-ethyl-4-(2-hydroxy-ethoxy)-phenyl]-ethyl}-dihydro-pyran-2,4-dione] | 490 nM
COc1ccc(CCC2(C3CCCC3)CC(O)=C(Cc3nc4ccccc4c(=O)[nH]3)C(=O)O2)cc1Cl (stereo not shown) [B(55), 2-({6-[2-(3-Chloro-4-methoxyphenyl)ethyl]-6-cyclopentyl-4-hydroxy-2-oxo-5,6-dihydro-2H-pyran-3-yl}methyl)quinazolin-4(3H)-one] | 150 nM
COCc1cc(CCC2(C3CCCC3)CC(=O)CC(=O)O2)ccc1O (stereo not shown) [A(194), 6-Cyclopentyl-6-[2-(4-hydroxy-3-methoxymethyl-phenyl)-ethyl]-dihydro-pyran-2,4-dione] | 6900 nM
Cc1cc(C)n2nc(CC3=C(O)CC(CCc4ccc(CCO)c(F)c4)(C4CCCC4)OC3=O)nc2n1 (stereo not shown) [A(119), 6-Cyclopentyl-3-(5,7-dimethyl-[1,2,4]triazolo[1,5-a]pyrimidin-2-ylmethyl)-6-{2-[3-fluoro-4-(2-hydroxy-ethyl)-phenyl]-ethyl}-4-hydroxy-5,6-dihydro-pyran-2-one] | 1200 nM
COc1ccc(CCC2(C3CCCC3)CC(O)=C(Sc3nc(C)cc(C)c3C#N)C(=O)O2)cc1Cl (stereo not shown) [C(105), 2-({6-[2-(3-chloro-4-methoxyphenyl)ethyl]-6-cyclopentyl-4-hydroxy-2-oxo-5,6-dihydro-2H-pyran-3-yl}thio)-4,6-dimethylnicotinonitrile] | 200 nM
CC(C)Oc1ccc(CCC2(C3CCCC3)CC(O)=C(Sc3nc4cc(Cl)ccc4[nH]3)C(=O)O2)cc1Cl (stereo not shown) [C(26), 3-(5-Chloro-1H-benzoimidazol-2-ylsulfanyl)-6-[2-(3-chloro-4-isopropoxy-phenyl)-ethyl]-6-cyclopentyl-4-hydroxy-5,6-dihydro-pyran-2-one] | 130 nM
COc1ccc(CCC2(C3CCCC3)CC(O)=C(Sc3nc4ccccc4s3)C(=O)O2)cc1Cl (stereo not shown) [C(45), 3-(1,3-benzothiazol-2-ylthio)-6-[2-(3-chloro-4-methoxyphenyl)ethyl]-6-cyclopentyl-4-hydroxy-5,6-dihydro-2H-pyran-2-one] | 3200 nM
Cc1cc(C)n2nc(CC3=C(O)CC(CCc4ccc(C(C)(C)C#N)c(F)c4)(C4CCCC4)OC3=O)nc2n1 (stereo not shown) [B(75), 2-(4-{2-[2-Cyclopentyl-5-(5,7-dimethyl-[1,2,4]triazolo[1,5-a]pyrimidin-2-ylmethyl)-4-hydroxy-6-oxo-3,6-dihydro-2H-pyran-2-yl]-ethyl}-2-fluoro-phenyl)-2-methyl-propionitrile] | 3 nM
